We go through 1 compound from ChEMBL document CHEMBL1201862, “PubChem BioAssay data set” (2004).

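Briefly, cells in 96-well plates were exposed to five compound concentrations for 48 h, and endpoints were estimated by linear interpolation. GI50: concentration for 50% inhibition of growth.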 Calls of active or inactive are those of the source. Cut-off read from the data, not from the text of the source: active = GI50 up to about 1.1 µM and inactive = higher.

Some test systems named below: SK-MEL-28; NCI-H226; HT-29; PC-3; NCI/ADR-RES; SK-MEL-2; MCF7; IGROV-1; LOX IMVI; HL-60; MDA-MB-435; RPMI-8226; MDA-N; K562; NCI-H522; SW-620; HCC 2998; HCT-15; BT-549; SNB-75.
Experiment in all cases: growth of human tumour cells (NCI), 48 h

For `COc1ccc(/C=C/c2cc(=O)cc(/C=C/c3ccc(OC)c(O)c3)o2)cc1O`, the GI50 is 3560 nM (inactive) in the test on SK-MEL-28; 5210 nM (inactive) with NCI-H226; 1980 nM (inactive) with HT-29; 3260 nM (inactive) in the test with PC-3; 2890 nM (inactive) in the test on NCI/ADR-RES; 2690 nM (inactive) in the test on SK-MEL-2. For the same compound, the GI50 in the test on MCF7 is 2140 nM (inactive); in the test on IGROV-1, 3220 nM (inactive); with LOX IMVI it was 1760 nM (inactive); in the test with HL-60, 2000 nM (inactive); with MDA-MB-435, 971 nM (active); in the test on RPMI-8226, 317 nM (active). Moreover, the GI50 is 1440 nM (inactive) in the test on MDA-N; 2420 nM (inactive) in the test with K562; 2240 nM (inactive) in the test with NCI-H522; 2710 nM (inactive) in the test with SW-620; 1780 nM (inactive) in the test with HCC 2998; 2290 nM in the test on HCT-15. Besides, the GI50 is 2650 nM (inactive) in the test with BT-549 and 3820 nM (inactive) in the test with SNB-75.
